Earlier results on 54 molecules are cited in PMC12308805, “Ultrahigh-Throughput Virtual Screening Strategies against PPI Targets: A Case Study of STAT Inhibitors” (Journal of Chemical Information and Modeling, 2025).

Square brackets hold non-standard residues; d marks the D form. Peptide text beside a SMILES is read from it. * marks the point of attachment. aIle = CC[C@@H](C)[C@H](N)C(=O)O; AMC = Cc1cc(=O)oc2cc(N*)ccc12; Boc = CC(C)(C)OC(=O)*

In the first series the test system is STAT3. The conditions noted are these: sheet 6QHD_actives_decoys, retrospective screening set for STAT3 SH2 domain (PDB 6QHD); decoys are presumed inactives, not tested; ref DUD-E; cited from earlier work.
As to `CCOC(=O)c1ccc(NC(=O)c2cc([N+](=O)[O-])ccc2NC(=O)CNCc2ccc3c(c2)OCO3)cc1` [Decoy729], the Type result is reported as “Inactive (Decoy)”.
For `C[C@H](N[C@H](C)c1ccc(Cl)s1)c1ccc(Cl)c(Cl)c1Cl` [Decoy730], the Type result was “Inactive (Decoy)”.
Regarding `CCCOC(=O)c1ccc(OCC(=O)N/N=C(/S)NC(=O)c2ccccc2[N+](=O)[O-])cc1` [Decoy731], the Type entry is reported as “Inactive (Decoy)”.
On to `C=C1NC(=O)[C@@H]([C@@H](C)O)NC(=O)[C@@H](C(C)C)NC(=O)[C@@H](C)[C@@H](O)[C@H](C)[C@@H](CCCCCCCCC)OC1=O` [Decoy732], for which the Type result is listed as “Inactive (Decoy)”.
Regarding `CCOc1ccc(NC(=O)CCC(=O)NNC(=S)NC(=O)c2cc([N+](=O)[O-])cc([N+](=O)[O-])c2)cc1` [Decoy733], the Type result is “Inactive (Decoy)”.
As to `O=C(NC(CO[C@H]1[C@H](O)[C@H](O)[C@H](O)O[C@@H]1CO)CO[C@H]1[C@H](O)[C@H](O)[C@@H](O)O[C@@H]1CO)c1ccc(C2(C(F)(F)F)N=N2)cc1` (stereo partly drawn) [Decoy734], the Type result is “Inactive (Decoy)”.
For `CCOC(=O)CNC(=O)[C@H](c1ccc(OC)cc1)N(C(=O)c1snc(C(N)=O)c1N)c1cccc(C)c1` [Decoy735], the Type result is “Inactive (Decoy)”.
As for `COc1cccc(/C=N/NC(=O)[C@H](C)Sc2nnc(S[C@H](C)C(=O)N/N=C/c3cccc(OC)c3OC)s2)c1OC` [Decoy736], the Type result is reported as “Inactive (Decoy)”.
Turning to `COc1cc(CNC(=O)CSc2n[nH]c(N/N=C/c3cc(OC)c(O)cc3[N+](=O)[O-])n2)cc(OC)c1` [Decoy737], the Type entry is “Inactive (Decoy)”.
In the case of `COc1ccc(OC[C@@H](O)Cn2c(C)c(C#N)c(=O)n(C[C@@H](O)COc3ccc(OC)cc3)c2=O)cc1` [Decoy738], the Type result is given as “Inactive (Decoy)”.
Take `O=C(O)CN(CC(=O)O)Cc1cc2c(cc1O)Oc1cc(O)c(CN(CC(=O)O)CC(=O)O)cc1C21OC(=O)c2ccccc21` [Decoy739]: the Type entry was “Inactive (Decoy)”.
`CCOC(=O)[C@@](NC(=O)c1cccc(Cl)c1)(Nc1ccc(S(=O)(=O)Nc2cc(C)nc(C)n2)cc1)C(F)(F)F` [Decoy740]: the Type result is given as “Inactive (Decoy)”.
Consider `COc1ccc([N+](=O)[O-])cc1N(C[C@H](O)CN(Cc1ccccc1)Cc1ccccc1)S(=O)(=O)c1ccccc1` [Decoy741], for which the Type result was “Inactive (Decoy)”.
`CC(=O)O[C@H]1[C@@H](O)[C@H](CO)O[C@H](O[C@@H](C/N=C/c2c(O)cc(O)c3ccccc23)[C@@H](CO)O[C@H](O)C/N=C/c2c(O)cc(O)c3ccccc23)[C@@H]1O` [Decoy742]: the Type result is given as “Inactive (Decoy)”.
Consider `CC[C@@]1(c2ccccc2)NC(=O)N(CC(=O)Nc2ccc(S(=O)(=O)Nc3ncccn3)cc2)C1=O` [Decoy743], for which the Type entry is given as “Inactive (Decoy)”.
As for `CCN(CC)S(=O)(=O)c1ccc(NC(=O)CCCCCCCC(=O)Nc2ccc(S(=O)(=O)N(CC)CC)cc2)cc1` [Decoy744], the Type entry is given as “Inactive (Decoy)”.
In the case of `CCOC(=O)C1=C(C)NC(=O)N[C@H]1c1ccc(OCC(=O)N/N=C/c2cc(C)n(-c3ccc(Cl)c(Cl)c3)c2C)c(OC)c1` [Decoy745], the Type entry is recorded as “Inactive (Decoy)”.
As for `Cc1cc(NS(=O)(=O)c2ccc(NC(=O)CCCC(=O)Nc3ccc(S(=O)(=O)Nc4cc(C)on4)cc3)cc2)no1` [Decoy746], the Type entry is recorded as “Inactive (Decoy)”.
For the molecule `CCOC(=O)c1[nH]c(C)c(C(=O)OCC(=O)NCC(=O)Nc2ccc(F)c(F)c2F)c1C` [Decoy747], the Type result is given as “Inactive (Decoy)”.
For `CCCCCCCCCCCCCCCCN(C)S(=O)(=O)c1ccc2sc(NNS(=O)(=O)c3ccc(S(N)(=O)=O)cc3)[n+](C)c2c1` [Decoy748], the Type entry is listed as “Inactive (Decoy)”.
Turning to `CS(=O)(=O)SCCNC(=O)[C@H](N)CCCCNC(=O)CCCCCNC(=O)CCCC[C@@H]1SC[C@H]2NC(=O)N[C@H]12` [Decoy749], the Type result is recorded as “Inactive (Decoy)”.
Consider `COc1cc(Cc2ccc(NC(=O)CSc3nc(N)cc(=O)[nH]3)c(OC)c2)ccc1NC(=O)CSc1nc(N)cc(=O)[nH]1` [Decoy750], for which the Type entry is reported as “Inactive (Decoy)”.
Regarding `CCOC(=O)c1c(NC(=O)CSc2n[nH]c(N/N=C/c3c[nH]c4ccccc34)n2)sc2c1CCC2` [Decoy751], the Type result is given as “Inactive (Decoy)”.
Consider `CC(=O)Nc1cccc(NC(=O)CSc2nnc(N/N=C/c3c(O)ccc4ccccc34)n2N)c1` [Decoy752], for which the Type entry was “Inactive (Decoy)”.
In the case of `CC[C@@H](C)[C@H](NC(=O)OC(C)(C)C)C(=O)N[C@@H](CCC(=O)O)C(=O)NCC(=O)N[C@@H](CCCNC(=N)N)C(=O)Nc1ccc2c(C)cc(=O)oc2c1` [Decoy753] (Boc-[aIle]EGR-{AMC}), the Type result is reported as “Inactive (Decoy)”.
For `CCOC(=O)c1c(NC(=O)c2cc(OC)c(OC)c(OC)c2)sc(C(=O)Nc2ccc(OC)cc2OC)c1C` [Decoy754], the Type entry is given as “Inactive (Decoy)”.
For `CC(C)CN(C(=O)CN(C)C(=O)Cc1ccccc1Cl)c1c(N)n(CC(C)C)c(=O)[nH]c1=O` [Decoy755], the Type result is “Inactive (Decoy)”.
In the case of `CCOC(=O)c1[nH]c(C)c(C(=O)C2=C(O)C(=O)N(CCCn3ccnc3)[C@H]2c2cc(OC)c(OC)c(OC)c2)c1C` [Decoy756], the Type result is “Inactive (Decoy)”.
For `CCCCN(C)S(=O)(=O)c1ccc(C(=O)Nc2ccc(S(=O)(=O)Nc3nc(C)cc(C)n3)cc2)cc1` [Decoy757], the Type entry is reported as “Inactive (Decoy)”.
`CC/C=C\C/C=C\C/C=C\CCCCCCCC(=O)OC[C@@H](O)CO[C@H]1O[C@@H](CO[C@H]2O[C@@H](CO)[C@H](O)[C@@H](O)[C@@H]2O)[C@@H](O)[C@@H](O)[C@@H]1O` [Decoy758]: the Type entry is “Inactive (Decoy)”.
`CCCOc1ccc([C@@H]2C(C(=O)c3c(C)nc4ccccn34)=C(O)C(=O)N2CCN(CC)CC)cc1OCC` [Decoy759]: the Type entry is recorded as “Inactive (Decoy)”.
For the molecule `CCCOc1ccc([C@H]2C(C(=O)c3c(C)nc4ccccn34)=C(O)C(=O)N2CCN(CC)CC)cc1OCC` [Decoy760], the Type result is “Inactive (Decoy)”.
`CCOC(=O)c1c(C)[nH]c(C(=O)OCC(=O)NCC(=O)Nc2ccc(F)c(F)c2F)c1C` [Decoy761]: the Type result is listed as “Inactive (Decoy)”.
For the molecule `CCCCOC(=O)C1=C(C)Nc2nc(SCc3ccccc3Cl)nn2[C@@H]1c1ccccc1C(=O)O` [Decoy762], the Type result is “Inactive (Decoy)”.
In the case of `Cc1nn(-c2cc(Cl)c(S(=O)(=O)O)cc2Cl)c(O)c1/N=N/c1cccc(S(=O)(=O)O)c1` [Decoy763], the Type entry is “Inactive (Decoy)”.
As for `CCOC(=O)[C@@H]1[C@@H](C(=O)OCC)[C@H]2/C(=N\NS(=O)(=O)c3ccc(C)cc3)[C@H]3[C@@H](C(=O)OCC)[C@@H](C(=O)OCC)[C@@H]3/C(=N\NS(=O)(=O)c3ccc(C)cc3)[C@@H]12` [Decoy764], the Type result is recorded as “Inactive (Decoy)”.
In the case of `COc1ccc([C@H](O[C@@H]2O[C@H](CO)[C@@H](O)[C@H](O)[C@H]2O)[C@@H](CO)Oc2ccc(/C=C/CO)cc2OC)cc1O` [Decoy765], the Type entry is listed as “Inactive (Decoy)”.
With `CC[C@@]1(c2ccccc2)NC(=O)N(CC(=O)NNC(=O)CCN2CCN(c3ccccc3)CC2)C1=O` [Decoy766], the Type result is “Inactive (Decoy)”.
In the case of `CC1=C/C(=C(\c2cc(C)c(O)c(CN(C)CC(=O)O)c2)c2ccccc2S(=O)(=O)O)C=C(CN(C)CC(=O)O)C1=O` [Decoy767], the Type entry is “Inactive (Decoy)”.
Regarding `COc1ccccc1NCc1nnc(SCC(=O)Nc2ccc3c(c2)C(O)=NC3=O)n1-c1ccccc1` [Decoy768], the Type result is listed as “Inactive (Decoy)”.
Take `CCN(CC)c1ccc(NC(=S)NC(=O)c2ccco2)cc1S(=O)(=O)Nc1ccc(OC)cc1` [Decoy769]: the Type entry is listed as “Inactive (Decoy)”.

Still in this series, the particulars now being: sheet 6QHD_actives_decoys; retrospective screening set for STAT3 SH2 domain (PDB 6QHD); […]; ref DUD-E; cited from earlier work.
On to `COc1cc(-n2c(O)c([C@H]3OC(=O)c4c3ccc(OC)c4OC)c(O)nc2=S)cc(OC)c1OC` [Decoy716], for which the Type entry is “Inactive (Decoy)”.

The same series, now with this note: sheet 6QHD_actives_decoys; retrospective screening set for STAT3 SH2 domain (PDB 6QHD); decoys generated with DUD-E and presumed inactive, not tested; ref DUD-E; cited from earlier work.
As for `COc1cc(O)c(C(C)=O)c(O[C@@H]2O[C@@H](CO[C@H]3O[C@@H](CO)[C@@H](O)[C@@H](O)[C@H]3O)[C@@H](O)[C@@H](O)[C@H]2O)c1` [Decoy717], the Type result was “Inactive (Decoy)”.
In the case of `Nn1c(SCC(=O)N/N=C/c2ccccc2OCc2ccccc2Cl)nnc1-c1ccncc1` [Decoy718], the Type result was “Inactive (Decoy)”.
`COC1=C(S[C@@H]2O[C@H](COC(C)=O)[C@@H](OC(C)=O)[C@H](OC(C)=O)[C@H]2OC(C)=O)C(=O)c2c(O)ccc(O)c2C1=O` [Decoy719]: the Type result was “Inactive (Decoy)”.
Consider `CC[C@H](C)[C@H](NC(=O)CNC(=O)CCc1c(C)c2cc3c(C)c(C)oc3c(C)c2oc1=O)C(=O)NCCCCCC(=O)O` [Decoy720], for which the Type result is reported as “Inactive (Decoy)”.
Consider `CCOc1ccc(NC(=O)CSC2=C(C#N)[C@H](c3ccco3)C(C(=O)Nc3ccc(OC)cc3)=C(C)N2)cc1` [Decoy721], for which the Type entry is given as “Inactive (Decoy)”.
Turning to `CCOC(=O)c1c(NC(=O)CSc2nnc(CNC(=O)c3ccco3)n2C)sc2c1CCC2` [Decoy722], the Type result is “Inactive (Decoy)”.
As for `CCCCn1c(N)c(N(CCOC)C(=O)CSc2nc3ccccc3s2)c(=O)[nH]c1=O` [Decoy723], the Type result is listed as “Inactive (Decoy)”.
Consider `COc1ccccc1CNC(=O)C[C@@H]1[C@H](O)CC[C@@H]2[C@](C)(CO)[C@H](OC(=O)Nc3cc(OC)c(OC)c(OC)c3)CC[C@]21C` [Decoy724], for which the Type result was “Inactive (Decoy)”.
Consider `COc1ccccc1NS(=O)(=O)c1cccc(C(=O)NNC(=O)CCn2c(C)csc2=O)c1` [Decoy725], for which the Type result was “Inactive (Decoy)”.
As to `CCN(CC)S(=O)(=O)c1cccc(-c2nnc(SCC(=O)Nc3cc(C)cc(C)c3)n2N)c1` [Decoy726], the Type result is listed as “Inactive (Decoy)”.
For `CC(=O)Nc1ccc(S(=O)(=O)N(CCN2CCOCC2)CC(=O)N(Cc2ccc3c(c2)OCO3)Cc2ccc(C)o2)cc1` [Decoy727], the Type result is “Inactive (Decoy)”.
Turning to `COc1ccc(CCN2C(=O)[C@H]3[C@@H](C2=O)[C@]2(N[C@@H]3Cc3ccc(O)c(O)c3)C(=O)Nc3ccc(Cl)cc32)cc1OC` [Decoy728], the Type entry is “Inactive (Decoy)”.
